Data as given in patent US6656022B2, “Method for polishing a semiconductor substrate member” (Hitachi, Ltd., priority 2001, dated 2003).
Where two headings read alike, the source gives them in different places.

Assay: Solubility of abrasive-grain material at normal temperature
Format: physicochemical
[1] = abrasive-grain material, normal temperature (25° C.)

Row | SMILES | Solubility [1] [%] | Solubility [%]
1 | O=C(O)CC(=O)O [Example 12, malonic acid] | 32.2 | 
2 | [Cl][Cu][Cl] [Example 5, CuCl2] | 42.8 | 
3 | OC[C@H]1O[C@@](CO)(O[C@H]2O[C@H](CO)[C@@H](O)[C@H](O)[C@H]2O)[C@@H](O)[C@@H]1O [Example 11, sucrose] | 67.0 | 
4 | O=S(=O)([O-])[O-].[Cu+2] [Example 6, CuSO4] |  | 18.2
5 | O=S(=O)([O-])[O-].O=S(=O)([O-])[O-].O=S(=O)([O-])[O-].[Ce+3].[Ce+3] [Example 4, Ce2(SO4)3] | 7.59 | 
